Test results as given in ChEMBL document CHEMBL1150810, “Structure and neurotrophic activity of seco-prezizaane-type sesquiterpenes from Illicium merrillianum” (J Nat Prod, 2001).
Activity calls are given as the source filed them. No cut-off for these calls is given here.

Tested on: Cortical neurone
Test: Neurotrophic activity in Sprague-Dawley rat cortical neurons assessed as promotion of neurite outgrowth at 0.1 to 10 uM
Assay type: functional

Compound | Activity
C[C@@H]1CC=C2[C@@]13C[C@@]1(O)OC(OC[C@@]2(C)[C@@]1(C)O)[C@@H]3O | inactive
C[C@@H]1CC[C@@]2(O)C13CC(=O)C1(C)C2(C)CO[C@]1(OC(=O)c1ccccc1)[C@@H]3O | inactive
C[C@@H]1CC[C@@]2(O)[C@@]13C[C@@]1(O)OC(OC[C@@]2(C)[C@@]1(C)O)[C@@H]3O | inactive
C[C@@H]1CC[C@@]2(O)C13CC(=O)C1(C)C2(C)CO[C@]1(O)[C@@H]3O | Active
C[C@@H]1C[C@@H](O)[C@@]2(O)[C@@]13C[C@@]1(O)OC(OC[C@@]2(C)[C@@]1(C)O)[C@@H]3O | inactive
CC1=CC[C@]2(O)[C@@]3(C)COC4O[C@](O)(C[C@@]12[C@H]4O)[C@]3(C)O | inactive
